Measured values taken from US8871753B2, “Macrocyclic compounds and their use as kinase inhibitors” (Incyte Corporation, priority 2008, dated 2014).
Where a name gives a salt, the structure may show the parent alone. Read-outs that look alike come from different tables or passages of the source.

What was measured:
Format in all cases: biochemical
[1] = target: T1, human JAK1 (a.a. 837-1142) (Homo sapiens, UniProt P23458); test: In vitro JAK kinase assay (HTRF, phosphorylation of a biotinylated peptide), JAK1; details: read-out: JAK1 IC50
T1 construct: human JAK1 (a.a. 837-1142); His tag (N); made in house; host or cells: insect cells (baculovirus)
Summary of the method: (§1)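 Phosphorylation of a biotinylated peptide by the JAK kinase domain, detected by HTRF with Eu-Py20 and SA-APC. ATP was 90 μM for JAK1, 30 μM for JAK2 and 3 μM for JAK3. Reactions ran 1 h at room temperature and were stopped with EDTA, followed by 40 min antibody binding.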

[2] = target: T2, human JAK2 (a.a. 828-1132) (Homo sapiens, UniProt O60674); test: In vitro JAK kinase assay (HTRF, phosphorylation of a biotinylated peptide), JAK2
T2 construct: JAK2 (a.a. 828-1132); His tag (N); made in house; host or cells: insect cells (baculovirus)
Summary of the method: as §1

[3] = target: T3, human JAK3 (a.a. 781-1124) (Homo sapiens, UniProt P52333); test: In vitro JAK kinase assay (HTRF, phosphorylation of a biotinylated peptide), JAK3
T3 construct: JAK3 (a.a. 781-1124); His tag (N); made in house; host or cells: insect cells (baculovirus)
Summary of the method: as §1

[4] = target: TYK2 (Homo sapiens, UniProt P29597); test: TYK2 kinase inhibition (Table A1)
[5] = target: T4, Recombinant Human Anaplastic Lymphoma Kinase (Homo sapiens, UniProt Q9UM73); test: ALK HTRF kinase assay
T4 construct: purchased Invitrogen, Carlsbad, Calif
Summary of the method: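 Compounds were incubated with recombinant human ALK and a biotin-tagged peptide substrate. Product was captured with streptavidin-APC and probed with a europium anti-phosphotyrosine antibody, and plates were read for time-resolved fluorescence. Dose-response data were fitted to derive IC50.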

[6] = method AA1 (90 μM ATP) or AA2 (1000 μM ATP), not stated per value
[7] = method AA1 (30 μM ATP) or AA2 (1000 μM ATP), not stated per value
[8] = method AA1 (3 μM ATP) or AA2 (1000 μM ATP), not stated per value
[9] = compound at 500 nM or 1 mM, 90 μM ATP
[10] = compound at a concentration of 500 nM or 1 mM (not specified), cells shown as percentage
[11] = Table B1, cells without percent sign

Sequence of TYK2 (P29597 whole entry): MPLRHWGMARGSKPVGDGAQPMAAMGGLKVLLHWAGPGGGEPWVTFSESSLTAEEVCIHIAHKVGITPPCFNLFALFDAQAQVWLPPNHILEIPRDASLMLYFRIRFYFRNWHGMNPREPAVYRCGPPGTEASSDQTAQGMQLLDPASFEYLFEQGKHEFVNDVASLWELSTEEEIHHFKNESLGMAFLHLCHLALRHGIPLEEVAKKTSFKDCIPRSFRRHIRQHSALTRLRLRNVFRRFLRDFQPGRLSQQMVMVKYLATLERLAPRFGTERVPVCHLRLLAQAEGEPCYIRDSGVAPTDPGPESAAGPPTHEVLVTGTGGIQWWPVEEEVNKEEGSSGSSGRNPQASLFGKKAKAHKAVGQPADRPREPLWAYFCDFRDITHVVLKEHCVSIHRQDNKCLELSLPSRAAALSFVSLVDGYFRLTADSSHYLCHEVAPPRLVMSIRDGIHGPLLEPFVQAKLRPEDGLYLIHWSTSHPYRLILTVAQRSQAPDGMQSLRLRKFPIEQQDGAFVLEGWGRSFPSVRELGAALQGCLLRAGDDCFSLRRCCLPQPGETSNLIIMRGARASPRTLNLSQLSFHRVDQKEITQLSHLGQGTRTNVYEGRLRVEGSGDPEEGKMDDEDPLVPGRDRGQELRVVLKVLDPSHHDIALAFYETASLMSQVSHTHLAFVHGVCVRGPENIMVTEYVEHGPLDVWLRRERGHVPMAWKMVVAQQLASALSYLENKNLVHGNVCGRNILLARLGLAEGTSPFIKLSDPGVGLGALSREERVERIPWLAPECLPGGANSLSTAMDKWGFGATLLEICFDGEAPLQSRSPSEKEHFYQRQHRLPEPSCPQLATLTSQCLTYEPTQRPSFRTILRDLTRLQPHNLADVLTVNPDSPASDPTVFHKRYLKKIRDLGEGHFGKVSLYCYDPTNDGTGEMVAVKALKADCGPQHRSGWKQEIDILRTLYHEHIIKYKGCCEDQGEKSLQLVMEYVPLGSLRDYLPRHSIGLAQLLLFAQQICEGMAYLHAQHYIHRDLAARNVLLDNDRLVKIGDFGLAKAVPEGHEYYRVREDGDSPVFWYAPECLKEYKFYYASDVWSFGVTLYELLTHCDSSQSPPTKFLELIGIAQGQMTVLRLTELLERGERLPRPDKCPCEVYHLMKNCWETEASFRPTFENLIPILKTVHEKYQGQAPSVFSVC
T4 sequence (Q9UM73 19-1620): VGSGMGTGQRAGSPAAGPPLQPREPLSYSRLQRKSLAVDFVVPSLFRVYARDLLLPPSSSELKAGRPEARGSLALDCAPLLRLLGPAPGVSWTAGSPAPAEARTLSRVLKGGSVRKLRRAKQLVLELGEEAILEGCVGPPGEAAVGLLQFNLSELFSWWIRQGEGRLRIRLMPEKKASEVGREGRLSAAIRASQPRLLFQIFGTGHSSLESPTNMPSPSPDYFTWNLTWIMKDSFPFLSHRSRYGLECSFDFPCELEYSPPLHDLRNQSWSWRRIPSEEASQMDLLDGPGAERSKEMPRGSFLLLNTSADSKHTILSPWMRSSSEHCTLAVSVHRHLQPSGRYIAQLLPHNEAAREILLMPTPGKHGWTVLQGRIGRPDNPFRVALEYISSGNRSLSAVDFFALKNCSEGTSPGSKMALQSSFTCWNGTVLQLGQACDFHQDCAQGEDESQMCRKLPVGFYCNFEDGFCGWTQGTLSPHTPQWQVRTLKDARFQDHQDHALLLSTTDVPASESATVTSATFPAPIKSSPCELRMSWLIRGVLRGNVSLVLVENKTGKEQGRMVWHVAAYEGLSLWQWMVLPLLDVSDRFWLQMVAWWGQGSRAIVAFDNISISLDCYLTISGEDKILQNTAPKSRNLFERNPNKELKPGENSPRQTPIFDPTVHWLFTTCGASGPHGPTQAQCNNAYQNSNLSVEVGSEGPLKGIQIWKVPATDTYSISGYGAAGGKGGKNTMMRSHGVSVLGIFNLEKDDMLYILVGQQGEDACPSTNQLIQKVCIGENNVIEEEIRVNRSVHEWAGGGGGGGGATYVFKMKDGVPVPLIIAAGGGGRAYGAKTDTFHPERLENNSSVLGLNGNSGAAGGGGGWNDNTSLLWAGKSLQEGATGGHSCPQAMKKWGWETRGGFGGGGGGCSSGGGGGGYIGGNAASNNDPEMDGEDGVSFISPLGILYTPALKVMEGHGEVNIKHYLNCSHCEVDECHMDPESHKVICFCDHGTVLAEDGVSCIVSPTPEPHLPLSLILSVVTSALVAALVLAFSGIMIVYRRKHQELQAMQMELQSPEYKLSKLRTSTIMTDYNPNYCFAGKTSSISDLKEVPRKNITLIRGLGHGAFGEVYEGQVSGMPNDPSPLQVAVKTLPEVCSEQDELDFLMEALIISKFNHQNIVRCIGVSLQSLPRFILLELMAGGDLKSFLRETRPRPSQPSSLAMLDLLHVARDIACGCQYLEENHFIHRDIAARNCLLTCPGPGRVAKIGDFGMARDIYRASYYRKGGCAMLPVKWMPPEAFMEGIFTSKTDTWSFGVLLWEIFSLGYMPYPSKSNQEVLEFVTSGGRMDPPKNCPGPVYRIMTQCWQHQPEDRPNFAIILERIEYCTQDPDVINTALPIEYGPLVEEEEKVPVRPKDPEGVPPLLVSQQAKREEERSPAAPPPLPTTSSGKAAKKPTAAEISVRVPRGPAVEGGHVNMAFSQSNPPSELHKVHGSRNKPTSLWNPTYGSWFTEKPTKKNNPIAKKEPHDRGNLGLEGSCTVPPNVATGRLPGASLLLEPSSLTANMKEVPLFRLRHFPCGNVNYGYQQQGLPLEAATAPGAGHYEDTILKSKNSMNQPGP
T3 sequence (P52333 781-1124): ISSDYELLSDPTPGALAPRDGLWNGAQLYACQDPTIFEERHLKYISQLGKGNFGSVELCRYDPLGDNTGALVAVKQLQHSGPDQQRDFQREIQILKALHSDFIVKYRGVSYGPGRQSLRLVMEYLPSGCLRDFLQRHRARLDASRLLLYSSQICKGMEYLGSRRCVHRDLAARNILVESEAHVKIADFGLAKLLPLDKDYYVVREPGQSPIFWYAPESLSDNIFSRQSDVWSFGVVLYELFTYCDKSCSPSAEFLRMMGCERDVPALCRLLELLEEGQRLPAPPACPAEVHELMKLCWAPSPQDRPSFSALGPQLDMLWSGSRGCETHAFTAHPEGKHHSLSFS
T2 sequence (O60674 828-1132): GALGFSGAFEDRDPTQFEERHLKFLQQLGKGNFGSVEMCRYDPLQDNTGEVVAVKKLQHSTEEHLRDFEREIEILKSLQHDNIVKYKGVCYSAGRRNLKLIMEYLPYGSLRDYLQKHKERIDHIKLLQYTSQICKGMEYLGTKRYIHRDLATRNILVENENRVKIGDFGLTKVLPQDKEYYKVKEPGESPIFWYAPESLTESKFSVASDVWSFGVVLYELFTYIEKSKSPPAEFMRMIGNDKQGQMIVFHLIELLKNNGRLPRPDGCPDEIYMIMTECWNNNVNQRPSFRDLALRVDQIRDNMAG
T1 sequence (P23458 849-1154): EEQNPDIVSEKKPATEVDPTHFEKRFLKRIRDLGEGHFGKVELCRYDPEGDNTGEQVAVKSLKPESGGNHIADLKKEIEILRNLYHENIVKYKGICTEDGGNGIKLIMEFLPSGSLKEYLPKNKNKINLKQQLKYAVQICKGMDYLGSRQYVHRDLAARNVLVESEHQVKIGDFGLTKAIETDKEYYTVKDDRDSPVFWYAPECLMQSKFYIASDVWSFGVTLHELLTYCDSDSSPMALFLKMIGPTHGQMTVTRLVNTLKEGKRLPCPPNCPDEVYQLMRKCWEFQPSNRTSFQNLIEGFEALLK

Row | IC50 [1, 6] [nM] | IC50 [2, 7] [nM] | IC50 [3, 8] [nM] | IC50 [4] [nM] | ALK % of inhibition at a concentration of 500 nM or 1 mM [5, 9] [%] | IC50 ([1]; Table B1) [nM] | IC50 ([2]; Table B1) [nM] | IC50 ([3]; Table B1) [nM] | IC50 ([4]; Table B1) [nM] | ALK % of inhibition at a concentration of 500 nM or 1 mM [5, 10] [%] | Structure (SMILES) | also measured
1 | 38 | 150 | > 200 | > 200 | 38 | – | – | – | – | – | O=C(CC1CCN(C(=O)c2ccc(F)cc2)CC1)Nc1ccc2cc1CCc1cccc(c1)Nc1ncc(Cl)c(n1)N2 [Example A203, N-[6-Chloro-2,4,8,22-tetraazatetracyclo[14.3.1.1(3,7).1(9,13)]docosa-1(20),3(22),4,6,9(21),10,12,16,18-nonaen-12-yl]-2-[1-(4-fluorobenzoyl)piperidin-4-yl]acetamide trifluoroacetate] | –
2 | – | – | – | – | – | 28 | 100 | > 200 | 199 | 58 | CN(C(=O)Nc1ccc2cc1CCc1cncc(c1)Nc1ncc(Cl)c(n1)N2)[C@H]1CCN(C(=O)c2ccccc2)C1 [Example B291, N-[(3S)-1-Benzoylpyrrolidin-3-yl]-N′-[6-chloro-2,4,8,18,22-pentaazatetracyclo[14.3.1.1(3,7).1(9,13)]docosa-1(20),3(22),4,6,9(21),10,12,16,18-nonaen-12-yl]-N-methylurea bis(trifluoroacetate)] | –
3 | – | – | – | – | – | – | – | – | – | – | NC(=O)N1CCN(c2ccc(-c3cc4cc(c3)Nc3ncc(Cl)c(n3)Nc3cccc(c3)OCC4)cn2)CC1 [Example D40, 4-{5-[6-Chloro-14-oxa-2,4,8,23-tetraazatetracyclo[15.3.1.1(3,7).1(9,13)]tricosa-1(21),3(23),4,6,9(22),10,12,17,19-nonaen-19-yl]pyridin-2-yl}piperazine-1-carboxamide bis(trifluoroacetate)] | IC50 ([1]; Table D1): 0.9 nM; IC50 ([2]; Table D1): 0.7 nM; IC50 ([3]; Table D1): 7.2 nM; IC50 ([4]; Table D1): 2.1 nM; IC50 ([5]; Table D1, 90 μM ATP): 182 nM
4 | – | – | – | – | – | 14 | 25 | 216 | 54 | 27 | Cc1oncc1C(=O)N1CCC(NC(=O)Nc2ccc3cc2CCc2cccc(c2)Nc2ncc(Cl)c(n2)N3)CC1 [Example B264, N-[6-chloro-2,4,8,22-tetraazatetracyclo[14.3.1.1(3,7).1(9,13)]docosa-1(20),3(22),4,6,9(21),10,12,16,18-nonaen-12-yl]-N′-{1-[(5-methylisoxazol-4-yl)carbonyl]piperidin-4-yl}urea trifluoroacetate] | –
5 | – | – | – | – | – | 93 | 27 | 205 | 378 | – | Clc1cnc2nc1Nc1cc(cc(CN3CCNCC3)c1)CCc1cccc(c1)N2 [Example B191, 6-Chloro-11-(piperazin-1-ylmethyl)-2,4,8,22-tetraazatetracyclo[14.3.1.1(3,7).1(9,13)]docosa-1(20),3(22),4,6,9(21),10,12,16,18-nonaene dihydrochloride] | IC50 [5, 11]: 1530 nM
6 | – | – | – | – | – | 3.9 | 10 | 43 | 13 | 52 | CCCc1ccccc1NC(=O)Nc1ccc2cc1CCc1cccc(c1)Nc1ncc(Cl)c(n1)N2 [Example B105, N-[6-Chloro-2,4,8,22-tetraazatetracyclo[14.3.1.1(3,7).1(9,13)]docosa-1(20), 3(22),4,6,9(21),10,12,16,18-nonaen-12-yl]-N′-(2-propylphenyl)urea trifluoroacetate] | –
7 | – | – | – | – | – | 3.5 | 23 | 163 | 55 | 14 | O=C(Nc1ccc2cc1CCc1cccc(c1)Nc1ncc(Cl)c(n1)N2)N[C@H]1CCN(Cc2ccccc2)C1 [Example B173, N-[(3S)-1-Benzylpyrrolidin-3-yl]-N′-[6-chloro-2,4,8,22-tetraazatetracyclo[14.3.1.1(3,7).1(9,13)]docosa-1(20),3(22),4,6,9(21),10,12,16,18-nonaen-12-yl]urea bis(trifluoroacetate)] | –
8 | 52 | 199 | > 200 | > 200 | 23 | – | – | – | – | – | O=C(CC1CCN(S(=O)(=O)c2ccccc2)CC1)Nc1ccc2cc1CCc1cccc(c1)Nc1ncc(Cl)c(n1)N2 [Example A205, N-[6-Chloro-2,4,8,22-tetraazatetracyclo[14.3.1.1(3,7).1(9,13)]docosa-1(20),3(22),4,6,9(21),10,12,16,18-nonaen-12-yl]-2-[1-(phenylsulfonyl)piperidin-4-yl]acetamide trifluoroacetate] | –
9 | 31 | 6.5 | 14 | 22 | 28 | – | – | – | – | – | CCOC(=O)CNC(=O)N1CCC(C(=O)Nc2ccc3cc2CCc2cccc(c2)Nc2ncc(Cl)c(n2)N3)CC1 [Example A60, Ethyl ({[4-({[6-chloro-2,4,8,22-tetraazatetracyclo[14.3.1.1(3,7).1(9,13)]docosa-1(20),3(22),4,6,9(21),10,12,16,18-nonaen-12-yl]amino}carbonyl)piperidin-1-yl]carbonyl}amino)acetate trifluoroacetate] | –
10 | – | – | – | – | – | 6.8 | 15 | 1 | 1.2 | – | Clc1cnc2nc1Nc1ccc(Nc3nc4cccnc4o3)c(c1)CCc1cccc(c1)N2 [Example B333, 6-Chloro-N-[1,3]oxazolo[5,4-b]pyridin-2-yl-2,4,8,22-tetraazatetracyclo[14.3.1.1(3,7).1(9,13)]docosa-1(20),3(22),4,6,9(21),10,12,16,18-nonaen-12-amine tris(trifluoroacetate)] | ALK % of inhibition at a concentration of 500 nM or 1 mM ([5]; percentage inhibition of the example compound at a concentration of 500 nM or 1 mM (not specified which)): 55%
11 | – | – | – | – | – | 0.92 | 1.5 | 16 | 3.1 | 14 | COCCNC(=O)Nc1ccc2cc1CCc1cccc(c1)Nc1ncc(Cl)c(n1)N2 [Example B243, N-[6-Chloro-2,4,8,22-tetraazatetracyclo[14.3.1.1(3,7).1(9,13)]docosa-1(20),3(22),4,6,9(21),10,12,16,18-nonaen-12-yl]-N′-(2-methoxyethyl)urea trifluoroacetate] | –
12 | 22 | 24 | 112 | 43 | 30 | – | – | – | – | – | CNC(=O)N1CCC(CC(=O)Nc2ccc3cc2CCc2cncc(c2)Nc2ncc(Cl)c(n2)N3)C1 (centres unmarked) [Example A93, 3-(2-{[6-Chloro-2,4,8,18,22-pentaazatetracyclo[14.3.1.1(3,7).1(9,13)]docosa-1(20),3(22),4,6,9(21),10,12,16,18-nonaen-12-yl]amino}-2-oxoethyl)-N-methylpyrrolidine-1-carboxamide bis(trifluoroacetate)] | –
13 | – | – | – | – | – | 9.8 | 273 | > 10000 | 541 | 16 | O=C(Nc1ccc2cc1CCc1cncc(c1)Nc1ncc(Cl)c(n1)N2)N[C@H]1CCN(C(=O)c2ccn[nH]2)C1 [Example B268, N-[6-Chloro-2,4,8,18,22-pentaazatetracyclo[14.3.1.1(3,7).1(9,13)]docosa-1(20),3(22),4,6,9(21),10,12,16,18-nonaen-12-yl]-N′-[(3S)-1-(1H-pyrazol-5-ylcarbonyl)pyrrolidin-3-yl]urea bis(trifluoroacetate)] | –
14 | – | – | – | – | – | 7.6 | 8.3 | 87 | 21 | – | O=C(Nc1ccc2cc1CCc1cccc(c1)Nc1ncc(Cl)c(n1)N2)c1ccccn1 [Example B37, N-[6-Chloro-2,4,8,22-tetraazatetracyclo[14.3.1.1(3,7).1(9,13)]docosa-1(20), 3(22),4,6,9(21),10,12,16,18-nonaen-12-yl]pyridine-2-carboxamide bis(trifluoroacetate)] | IC50 [5, 11]: > 10000 nM
15 | 14 | 4.2 | 11 | 14 | 41 | – | – | – | – | – | Cc1cc(C(=O)N2CCCC(C(=O)Nc3ccc4cc3CCc3cccc(c3)Nc3ncc(Cl)c(n3)N4)C2)no1 (centres unmarked) [Example A121, N-[6-Chloro-2,4,8,22-tetraazatetracyclo[14.3.1.1(3,7).1(9,13)]docosa-1(20),3(22),4,6,9(21),10,12,16,18-nonaen-12-yl]-1-[(5-methylisoxazol-3-yl)carbonyl]piperidine-3-carboxamide trifluoroacetate] | –
16 | – | – | – | – | – | 4.9 | 10 | 83 | 24 | 29 | O=C(NCCN1CCCCC1)Nc1ccc2cc1CCc1cccc(c1)Nc1ncc(Cl)c(n1)N2 [Example B258, N-[6-Chloro-2,4,8,22-tetraazatetracyclo[14.3.1.1(3,7).1(9,13)]docosa-1(20),3(22),4,6,9(21),10,12,16,18-nonaen-12-yl]-N′-(2-piperidin-1-ylethyl)urea bis(trifluoroacetate)] | –
